# Data published in ChEMBL document CHEMBL1201862, “PubChem BioAssay data set” (2004).
# Active and inactive are the calls of the source.
# Assays:
# [1] = molecular target: FAD-linked sulfhydryl oxidase ALR (Homo sapiens, UniProt P55789); assay: inhibitors of human ALR sulfhydryl oxidase, dose response, biochemical, H2O2 detection, luminescence, cherry-pick (AID 493248)
# [2] = molecular target: Induced myeloid leukemia cell differentiation protein Mcl-1 (Homo sapiens, UniProt Q07820); assay type: functional
# Sequence of Induced myeloid leukemia cell differentiation protein Mcl-1 (Q07820 whole entry): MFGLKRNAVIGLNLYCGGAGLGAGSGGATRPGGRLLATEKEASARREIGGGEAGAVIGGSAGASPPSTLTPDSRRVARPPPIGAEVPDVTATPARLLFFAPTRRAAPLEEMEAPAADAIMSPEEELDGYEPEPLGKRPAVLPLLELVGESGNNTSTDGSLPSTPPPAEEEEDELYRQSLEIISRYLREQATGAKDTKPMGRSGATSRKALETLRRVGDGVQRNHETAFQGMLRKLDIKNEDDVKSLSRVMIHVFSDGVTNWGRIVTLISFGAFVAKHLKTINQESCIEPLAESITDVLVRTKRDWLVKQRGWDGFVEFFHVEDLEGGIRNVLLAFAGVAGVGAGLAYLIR
# [3] = molecular target: G-protein coupled receptor 55 (Homo sapiens, UniProt Q9Y2T6); assay: GPR55 antagonists blocking LPI-driven arrestin recruitment, primary screen, imaging, U2OS, beta-arrestin-GFP, LPI agonist (AID 2013); assay type: functional;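 note: antagonist potency measured as reduced agonist-driven arrestin aggregation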
# Sequence of G-protein coupled receptor 55 (Q9Y2T6 whole entry): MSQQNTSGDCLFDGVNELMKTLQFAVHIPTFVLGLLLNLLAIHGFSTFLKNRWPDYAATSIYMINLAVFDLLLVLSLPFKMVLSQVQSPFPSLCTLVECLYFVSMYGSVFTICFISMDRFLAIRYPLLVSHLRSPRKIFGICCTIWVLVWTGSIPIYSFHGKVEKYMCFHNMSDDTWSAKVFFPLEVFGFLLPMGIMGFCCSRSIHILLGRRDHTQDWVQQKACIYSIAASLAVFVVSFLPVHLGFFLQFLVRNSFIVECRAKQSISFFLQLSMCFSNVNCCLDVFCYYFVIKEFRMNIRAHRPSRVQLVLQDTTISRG
# Genome polyprotein = Genome polyprotein (dengue virus type 2, UniProt P29990); assay: Dengue-2 NS5 methyltransferase inhibitors, primary screen, biochemical, confirmation dose response (AID 588689); assay type: functional
# Sequence of Genome polyprotein (P29990 2492-3391 limits assumed): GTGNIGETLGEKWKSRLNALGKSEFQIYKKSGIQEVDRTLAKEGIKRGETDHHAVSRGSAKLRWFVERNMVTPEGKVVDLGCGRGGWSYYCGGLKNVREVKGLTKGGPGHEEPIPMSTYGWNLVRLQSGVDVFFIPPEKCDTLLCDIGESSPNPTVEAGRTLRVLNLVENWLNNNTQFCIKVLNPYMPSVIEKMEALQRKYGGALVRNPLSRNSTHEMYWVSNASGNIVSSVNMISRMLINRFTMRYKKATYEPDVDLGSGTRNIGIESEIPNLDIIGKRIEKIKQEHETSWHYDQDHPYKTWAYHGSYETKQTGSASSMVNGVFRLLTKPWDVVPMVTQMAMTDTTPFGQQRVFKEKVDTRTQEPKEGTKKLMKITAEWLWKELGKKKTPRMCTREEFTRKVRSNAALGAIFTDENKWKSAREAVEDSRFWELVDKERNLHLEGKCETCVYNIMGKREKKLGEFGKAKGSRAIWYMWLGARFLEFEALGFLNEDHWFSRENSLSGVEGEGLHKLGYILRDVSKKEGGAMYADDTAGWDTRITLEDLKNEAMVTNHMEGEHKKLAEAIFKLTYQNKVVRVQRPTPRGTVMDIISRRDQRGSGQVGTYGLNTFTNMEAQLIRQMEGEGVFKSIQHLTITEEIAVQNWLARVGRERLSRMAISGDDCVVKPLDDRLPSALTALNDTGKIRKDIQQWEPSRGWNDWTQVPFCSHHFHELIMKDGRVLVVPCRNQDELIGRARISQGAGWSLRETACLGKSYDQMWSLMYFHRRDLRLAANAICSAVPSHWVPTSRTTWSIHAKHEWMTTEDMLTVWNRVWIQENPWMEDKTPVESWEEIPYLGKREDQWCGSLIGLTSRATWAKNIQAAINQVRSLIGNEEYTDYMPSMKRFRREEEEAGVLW
# [4] = Luminescence Cell-Based Dose Retest to Confirm Inhibitors of Cancer Stem Cells. [Related pubchem assays (depositor defined):AID2717, AID2721]; assay type: functional; settings: Homo sapiens
# Vero = Vero cell cytotoxicity, cytotoxicity control for flavivirus capping enzyme inhibitors (AID 588742); assay type: functional; settings: Chlorocebus sabaeus
# Large T antigen = Large T antigen (Simian virus 40, UniProt P03070); assay type: functional, Betapolyomavirus macacae;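 note: Confirmatory-stage PubChem screen for compounds that inhibit SV40 T antigen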
# Sequence of Large T antigen (P03070 whole entry): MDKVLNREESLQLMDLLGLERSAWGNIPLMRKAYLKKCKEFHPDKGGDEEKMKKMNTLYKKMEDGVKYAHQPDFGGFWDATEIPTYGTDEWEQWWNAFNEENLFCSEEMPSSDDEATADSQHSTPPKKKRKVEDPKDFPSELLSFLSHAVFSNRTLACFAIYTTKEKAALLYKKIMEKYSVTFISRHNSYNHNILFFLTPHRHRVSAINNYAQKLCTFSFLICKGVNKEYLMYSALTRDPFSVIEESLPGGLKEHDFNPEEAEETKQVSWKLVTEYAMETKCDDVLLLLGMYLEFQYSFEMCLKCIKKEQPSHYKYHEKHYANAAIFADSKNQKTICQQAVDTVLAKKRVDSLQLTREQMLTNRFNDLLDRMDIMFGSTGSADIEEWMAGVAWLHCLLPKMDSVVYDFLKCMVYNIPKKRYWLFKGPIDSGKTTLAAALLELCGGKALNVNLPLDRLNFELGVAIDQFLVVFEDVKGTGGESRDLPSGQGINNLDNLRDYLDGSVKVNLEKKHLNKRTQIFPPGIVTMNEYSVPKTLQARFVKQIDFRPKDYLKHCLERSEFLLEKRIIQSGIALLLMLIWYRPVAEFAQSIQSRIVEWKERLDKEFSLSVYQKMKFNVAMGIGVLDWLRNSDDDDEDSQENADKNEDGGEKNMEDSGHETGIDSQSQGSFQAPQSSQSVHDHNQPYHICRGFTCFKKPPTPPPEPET
# [5] = molecular target: T1, High affinity choline transporter 1 (Homo sapiens, UniProt Q9GZV3); assay: CHT inhibitors, dose response, cell-based, 5-point CRC, membrane potential dye (AID 504840); assay type: functional
# T1 sequence (Q9GZV3 whole entry): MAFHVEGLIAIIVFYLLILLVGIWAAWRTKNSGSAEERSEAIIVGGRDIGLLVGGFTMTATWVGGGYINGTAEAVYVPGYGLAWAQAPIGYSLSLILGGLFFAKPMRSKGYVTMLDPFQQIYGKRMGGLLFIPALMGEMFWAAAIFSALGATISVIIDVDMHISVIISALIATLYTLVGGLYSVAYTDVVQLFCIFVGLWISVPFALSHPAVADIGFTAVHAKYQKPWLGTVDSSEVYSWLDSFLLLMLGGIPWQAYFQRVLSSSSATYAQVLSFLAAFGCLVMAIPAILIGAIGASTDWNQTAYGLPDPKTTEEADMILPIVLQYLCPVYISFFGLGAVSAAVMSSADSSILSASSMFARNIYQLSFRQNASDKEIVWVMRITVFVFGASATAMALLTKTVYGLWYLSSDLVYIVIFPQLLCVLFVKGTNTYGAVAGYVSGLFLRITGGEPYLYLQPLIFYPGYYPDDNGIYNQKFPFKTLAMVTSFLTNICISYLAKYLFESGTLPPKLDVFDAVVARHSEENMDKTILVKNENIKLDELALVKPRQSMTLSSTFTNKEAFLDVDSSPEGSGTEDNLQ
# [6] = molecular target: T2, Type-1 angiotensin II receptor (Homo sapiens, UniProt P30556); assay: AT1 receptor agonists, dose response, selectivity assay for APJ receptor agonist project, cell-based, uHTS hits (AID 488865); assay type: functional;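 note: beta-arrestin recruitment to AT1 measured by enzyme fragment complementation luminescence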
# T2 sequence (P30556 whole entry): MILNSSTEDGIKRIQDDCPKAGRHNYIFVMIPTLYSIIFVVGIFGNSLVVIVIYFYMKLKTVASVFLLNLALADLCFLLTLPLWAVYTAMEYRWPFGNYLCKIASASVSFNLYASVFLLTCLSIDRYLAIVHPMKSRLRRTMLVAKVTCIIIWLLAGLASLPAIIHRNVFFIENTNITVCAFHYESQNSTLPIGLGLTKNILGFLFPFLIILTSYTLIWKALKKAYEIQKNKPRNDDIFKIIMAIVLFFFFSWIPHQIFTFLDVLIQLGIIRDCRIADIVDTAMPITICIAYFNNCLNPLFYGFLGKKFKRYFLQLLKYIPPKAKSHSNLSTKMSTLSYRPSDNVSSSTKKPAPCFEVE
# [7] = molecular target: T3, Ubiquitin-conjugating enzyme E2 N (Homo sapiens, UniProt P61088); assay type: functional
# T3 sequence (P61088 whole entry): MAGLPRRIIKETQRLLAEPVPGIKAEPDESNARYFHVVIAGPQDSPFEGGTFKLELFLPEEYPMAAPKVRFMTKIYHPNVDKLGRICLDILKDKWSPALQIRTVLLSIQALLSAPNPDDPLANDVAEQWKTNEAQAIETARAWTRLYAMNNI
# Bcl-2-related protein A1 = Bcl-2-related protein A1 (Mus musculus, UniProt Q07440); assay type: functional;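 note: confirmatory dose–response counterscreen on Bfl-1, used to check hits from a UBC13 polyubiquitin inhibitor campaign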
# Sequence of Bcl-2-related protein A1 (Q07440 whole entry): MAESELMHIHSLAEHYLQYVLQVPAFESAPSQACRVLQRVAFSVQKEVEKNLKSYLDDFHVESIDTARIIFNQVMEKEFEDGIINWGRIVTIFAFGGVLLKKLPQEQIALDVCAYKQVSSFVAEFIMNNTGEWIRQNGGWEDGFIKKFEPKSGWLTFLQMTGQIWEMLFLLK
# [8] = HEp-2 cell cytotoxicity, dose response, cytotoxicity control for RSV inhibitor project, HTS (AID 2410); assay type: functional; settings: human respiratory syncytial virus
# [9] = molecular target: T3, Ubiquitin-conjugating enzyme E2 N; assay type: functional; remark: listed apart in the source
# Cytochrome P450 2D6 = Cytochrome P450 2D6 (Homo sapiens, UniProt P10635);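 note: CYP2D6 member of a cytochrome P450 panel assay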
# Sequence of Cytochrome P450 2D6 (P10635 whole entry): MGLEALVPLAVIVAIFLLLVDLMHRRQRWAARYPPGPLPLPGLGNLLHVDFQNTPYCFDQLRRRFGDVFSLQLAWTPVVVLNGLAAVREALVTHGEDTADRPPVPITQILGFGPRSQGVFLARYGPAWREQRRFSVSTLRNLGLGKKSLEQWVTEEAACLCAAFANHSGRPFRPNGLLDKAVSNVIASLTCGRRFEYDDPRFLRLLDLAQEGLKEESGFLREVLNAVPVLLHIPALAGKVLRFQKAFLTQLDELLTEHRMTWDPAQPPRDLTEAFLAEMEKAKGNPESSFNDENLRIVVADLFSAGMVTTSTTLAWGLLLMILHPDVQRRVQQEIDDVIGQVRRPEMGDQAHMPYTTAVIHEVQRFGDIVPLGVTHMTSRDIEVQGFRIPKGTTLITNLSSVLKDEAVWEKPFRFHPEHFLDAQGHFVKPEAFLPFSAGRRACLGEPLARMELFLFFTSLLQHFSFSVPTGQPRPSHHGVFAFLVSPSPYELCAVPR
# NS3 = NS3 (Hepatitis C virus, UniProt A3EZJ3); assay: PubChem AID 2173; set-up: species or system Hepacivirus hominis
# Sequence of NS3 (A3EZJ3 whole entry): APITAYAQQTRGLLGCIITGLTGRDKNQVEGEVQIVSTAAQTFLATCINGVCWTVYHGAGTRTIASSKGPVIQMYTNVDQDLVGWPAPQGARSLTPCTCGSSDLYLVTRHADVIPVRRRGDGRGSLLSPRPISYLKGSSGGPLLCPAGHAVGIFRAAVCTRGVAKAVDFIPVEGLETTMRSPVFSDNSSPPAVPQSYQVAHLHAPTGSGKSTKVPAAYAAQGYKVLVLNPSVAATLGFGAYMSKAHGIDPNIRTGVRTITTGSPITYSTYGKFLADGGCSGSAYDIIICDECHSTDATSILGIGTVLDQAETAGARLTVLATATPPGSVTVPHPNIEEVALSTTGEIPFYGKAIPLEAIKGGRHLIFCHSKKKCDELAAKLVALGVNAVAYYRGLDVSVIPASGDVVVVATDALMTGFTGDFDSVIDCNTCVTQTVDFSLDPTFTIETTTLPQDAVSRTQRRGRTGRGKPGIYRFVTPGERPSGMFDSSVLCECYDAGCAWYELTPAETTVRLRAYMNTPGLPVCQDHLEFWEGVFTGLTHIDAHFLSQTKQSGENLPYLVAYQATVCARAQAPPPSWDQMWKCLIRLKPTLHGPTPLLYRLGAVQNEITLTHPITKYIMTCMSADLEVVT
# [10] = molecular target: T4, Zinc finger protein mex-5 (Caenorhabditis elegans, UniProt Q9XUB2); assay: MEX-5/TCR-2 RNA interaction inhibitors, dose response, biochemical, C. elegans, fluorescence polarization (AID 1960)
# T4 sequence (Q9XUB2 whole entry): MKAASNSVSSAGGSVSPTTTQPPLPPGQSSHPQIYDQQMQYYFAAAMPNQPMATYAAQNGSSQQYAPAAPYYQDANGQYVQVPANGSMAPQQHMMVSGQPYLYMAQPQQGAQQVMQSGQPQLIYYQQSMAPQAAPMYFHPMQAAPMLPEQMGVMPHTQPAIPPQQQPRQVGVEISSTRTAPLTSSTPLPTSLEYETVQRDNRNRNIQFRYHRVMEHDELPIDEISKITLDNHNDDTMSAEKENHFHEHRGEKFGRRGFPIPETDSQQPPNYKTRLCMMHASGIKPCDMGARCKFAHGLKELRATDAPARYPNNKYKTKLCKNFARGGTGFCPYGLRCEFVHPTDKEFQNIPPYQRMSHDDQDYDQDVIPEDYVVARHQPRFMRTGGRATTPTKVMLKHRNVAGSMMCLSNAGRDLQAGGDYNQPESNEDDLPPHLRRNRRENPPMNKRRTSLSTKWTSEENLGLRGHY
# [11] = molecular target: T5, RNA-binding protein pos-1 (Caenorhabditis elegans, UniProt G5EF15); assay: inhibitors of POS-1/mex-3 RNA binding, dose response, biochemical, fluorescence polarization (AID 1964);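 note: purified POS-1 fused to maltose binding protein made in E. coli; potency of compounds blocking POS-1 binding to fluorescent RNA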
# T5 sequence (G5EF15 whole entry): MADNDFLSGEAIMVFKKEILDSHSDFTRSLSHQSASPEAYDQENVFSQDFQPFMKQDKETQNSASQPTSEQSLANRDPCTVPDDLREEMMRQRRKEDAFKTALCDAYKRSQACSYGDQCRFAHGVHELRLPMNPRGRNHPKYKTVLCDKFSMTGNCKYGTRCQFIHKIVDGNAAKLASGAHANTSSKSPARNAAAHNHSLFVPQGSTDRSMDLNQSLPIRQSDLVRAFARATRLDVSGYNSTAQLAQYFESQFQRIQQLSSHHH
# [12] = molecular target: T6, Endoribonuclease toxin MazF (Escherichia coli K-12, UniProt P0AE70); assay: MazF toxin RNase activators, dose response, biochemical, fluorescence, single-stranded RNA substrate, uHTS hits (AID 588481); assay type: functional
# T6 sequence (P0AE70 whole entry): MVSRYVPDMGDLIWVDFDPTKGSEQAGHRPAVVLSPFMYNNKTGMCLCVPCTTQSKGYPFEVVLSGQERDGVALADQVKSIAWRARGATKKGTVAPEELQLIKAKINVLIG
# [13] = molecular target: T6, Endoribonuclease toxin MazF; assay: fluorescent RNA oligo signal without MazF, dose response, counter-screen for MazEF activator project, biochemical, fluorescence, single-stranded RNase substrate (AID 588502); assay type: functional
# Troponin, cardiac muscle = Troponin, cardiac muscle (Homo sapiens, UniProt P19429+P45379+P63316); assay: Fluorescence-based biochemical high throughput dose response assay for activators of the calcium sensitivity of cardiac Regulated Thin Filaments (RTF). [Related pubchem assays (depositor defined):AID493008, AID493018, AID504382, AID504383]; assay type: protein-complex assay
# Sequence of FAD-linked sulfhydryl oxidase ALR (P55789 whole entry): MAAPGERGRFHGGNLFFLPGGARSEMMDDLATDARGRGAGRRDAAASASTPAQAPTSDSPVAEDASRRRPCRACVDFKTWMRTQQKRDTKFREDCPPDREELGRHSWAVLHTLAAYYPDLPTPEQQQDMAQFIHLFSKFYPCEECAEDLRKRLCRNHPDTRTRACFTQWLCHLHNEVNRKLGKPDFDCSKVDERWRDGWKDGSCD
compound,measurement,setting,value
Cc1ccc(N2NC(=O)/C(=C\c3cc4c(cc3[N+](=O)[O-])OCO4)C2=O)cc1C,AC50,[1],0.321 µM (active)
same,IC50,[2],4.66 µM (active)
same,IC50,[3],3.3 µM (active)
same,IC50,Genome polyprotein,27 µM (active)
same,AC50,[4],3.65 µM (active)
same,CC50,Vero,> 40 µM (active)
same,IC50,Large T antigen,23 µM (active)
same,IC50,[5],3.98 µM (active)
CN(C)CCCN(C(=O)c1ccc(S(=O)(=O)N2CCc3ccccc3C2)cc1)c1nc2c(F)cccc2s1,EC50,[6],> 100 µM (inactive)
O=C(CCCn1c(=S)[nH]c2ccc(Br)cc2c1=O)N1CCN(c2ccccn2)CC1,IC50,[7],19.6 µM (active)
same,IC50,Bcl-2-related protein A1,> 20 µM (inactive)
same,CC50,[8],23.6 µM (active)
same,IC50,[9],> 20 µM (inactive)
same,AC50,Cytochrome P450 2D6,15.8 µM (inconclusive)
C#CCN(CC=C)C(=O)c1ccc2nc(C3CCCCC3)oc2c1,IC50,[3],4.55 µM (active)
CSc1ccc(C2C(C(=O)c3ccco3)=C(O)C(=O)N2c2nnc(SC)s2)cc1 (stereo unspecified),IC50,NS3,4.87 µM (active)
same,EC50,[10],16.4 µM (active)
same,EC50,[11],6.79 µM (active)
same,EC50,[12],> 99 µM (inactive)
same,EC50,[13],> 99 µM (inactive)
same,EC50,"Troponin, cardiac muscle",0.279 µM (active)
